Test results: US11964955B2, “Mixtures of cannabinoid compounds, and production and use thereof” (priority 2015, dated 2024)
Entries after “also recorded” stand apart in the source; their conditions may differ. Like-named read-outs stand apart in the source and are kept apart here.

Columns and labels:
CB2 receptor [1] = target: T1, CB2 receptor (Homo sapiens, UniProt P34972); experiment: Signal transmission (CRE-luciferase, forskolin) in CHO-CB2-CREluc cells, agonism; details: for Functional effect at the CB2 receptor (in words): FIGS. 2 and 3
T1 sequence (P34972 whole entry): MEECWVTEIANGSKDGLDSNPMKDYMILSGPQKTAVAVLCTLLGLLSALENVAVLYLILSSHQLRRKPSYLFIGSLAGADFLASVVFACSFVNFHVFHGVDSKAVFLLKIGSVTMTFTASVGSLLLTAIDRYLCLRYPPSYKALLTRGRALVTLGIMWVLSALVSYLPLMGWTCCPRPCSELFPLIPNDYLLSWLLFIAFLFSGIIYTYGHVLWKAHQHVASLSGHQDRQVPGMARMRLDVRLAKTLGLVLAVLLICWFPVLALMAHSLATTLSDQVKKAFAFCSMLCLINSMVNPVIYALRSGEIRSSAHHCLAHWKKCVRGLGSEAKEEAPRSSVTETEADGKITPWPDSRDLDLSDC

CB1 receptor [2] = target: T2, CB1 receptor (Homo sapiens, UniProt P21554); experiment: Signal transmission (CRE-luciferase) in CHO-CB1-CREluc cells, agonism and antagonism versus WIN; details: for Functional effect at the CB1 receptor (in words): text and FIGS. 4 to 6
T2 sequence (P21554 whole entry): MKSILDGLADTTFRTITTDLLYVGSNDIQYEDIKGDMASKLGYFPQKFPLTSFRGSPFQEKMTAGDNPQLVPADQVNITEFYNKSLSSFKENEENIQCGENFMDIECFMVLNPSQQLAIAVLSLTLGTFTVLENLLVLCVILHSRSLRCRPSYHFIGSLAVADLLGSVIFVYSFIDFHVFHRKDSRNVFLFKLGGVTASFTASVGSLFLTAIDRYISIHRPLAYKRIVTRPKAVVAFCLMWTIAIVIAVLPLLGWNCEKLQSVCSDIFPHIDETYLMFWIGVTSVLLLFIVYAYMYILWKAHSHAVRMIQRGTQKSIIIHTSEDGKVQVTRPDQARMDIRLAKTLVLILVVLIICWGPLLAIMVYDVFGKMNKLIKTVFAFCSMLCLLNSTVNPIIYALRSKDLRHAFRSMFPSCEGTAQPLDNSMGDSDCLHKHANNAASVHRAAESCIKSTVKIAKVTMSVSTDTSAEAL

CB2 receptor [3] = target: T1, CB2 receptor; experiment: Competition binding study with [3H]-CP55940 on membranes of CB2-transfected human cells; parameters: purchased RBXCB2M400UA; details: for Ki: mean +/- SEM, [3H]-CP55940 0.15 nM, triplicates; for Selectivity for CB2 compared to CB1 (fold): ratio of Ki CB1 to Ki CB2; for CB2 (% Binding): screening with a single high dose, displacement of [3H]-CP55940 0.15 nM
CB1 receptor [4] = target: T2, CB1 receptor; experiment: biochemical; format: binding; parameters: purchased RBHCB1M400UA
CB2 receptor [5] = details: Pertwee et al. Pharmacol. Rev. 2010; read-out: CB2 affinity (dissociation constant) listed in the literature; cited from earlier work

| Structure (SMILES) | Agonism and antagonism at CB2 (CB2 receptor [1]) | Functional effect at the CB2 receptor (in words) (CB2 receptor [1]) | Agonism and antagonism at CB1 (CB1 receptor [2]) | Functional effect at the CB1 receptor (in words) (CB1 receptor [2]) | Ki (CB2 receptor [3]) [nM] | Selectivity for CB2 compared to CB1 (fold) (CB2 receptor [3]) | CB2 (% Binding) (CB2 receptor [3]) | CB1 (% Binding) (CB1 receptor [4]) | Ki (CB1 receptor [4]; read-out: Ki for CB1) [nM] | Binding to CB2 receptor (in words) (CB2 receptor [3]) | Binding to CB1 receptor (in words) (CB1 receptor [4]) | Ki (CB1 receptor [4]) [nM] | Ki (CB2 receptor [5]) [nM] |
| --- | --- | --- | --- | --- | --- | --- | --- | --- | --- | --- | --- | --- | --- |
| C=C(C)[C@@H]1CCC(C)=C[C@H]1c1c(O)cc(CCC)c(C(=O)OCCO)c1O [HECBDV, 2-hydroxyethylcannabidivarinolat] | ++ | selective agonist; also recorded: Dose-dependent agonism | − | inhibited; also recorded: Dose-dependent antagonism | 168 ± 39.4 | 33.6 | 95.0% (n = 3) | 43.3% (n = 5) | 5650 ± 3900 |  |  |  |  |
| C=C(C)[C@@H]1CCC(C)C=C1c1c(O)cc(CCC)c(C(=O)OCCCCCC)c1O (stereo partly shown) [HCBDV, hexylcannabidivarinolat] | 0 |  | ++ | selective activation of CB1 receptors; also recorded: Dose-dependent agonism | 9.91 ± 2.46 | 0.8 | 98.5% (n = 3) | 91.1% (n = 4) |  | strong binding to the receptors within the lower nanomolar range | strong binding to the receptors within the lower nanomolar range | 8.28 ± 0.69 |  |
| C=C(C)[C@@H]1CCC(C)C=C1c1c(O)cc(CCC)c(C(=O)OC2CCCCC2)c1O (stereo partly shown) [CHCBDV, cyclohexylcannabidivarinolat] | ++ | CB1 and CB2 agonist; also recorded: Dose-dependent agonism | ++ | CB1 and CB2 agonist; also recorded: Dose-dependent agonism | 4.62 ± 0.46 | 2.9 | 99.9% (n = 3) | 82.4% (n = 4) |  | strong binding to the receptors within the lower nanomolar range | strong binding to the receptors within the lower nanomolar range | 13.2 ± 0.85 |  |
